This note sets out measurements from patent US9850283B2, “Macrocyclic inhibitors of the PD-1/PD-L1 and CD80(B7-1)/PD-L1 protein/protein interactions” (BRISTOL-MYERS SQUIBB COMPANY, priority 2013, dated 2017).

Read-outs that look alike come from different tables or passages of the source. Positions of bridges follow the written chain, without caps; N, C: chain ends. Non-standard residues stand in square brackets, D forms with d. Residues, ends and D or L forms follow the SMILES beside them. Ala(indol-4-yl) = N[C@@H](Cc1cccc2[nH]ccc12)C(=O)O; Trp(5-Cl) = N[C@@H](Cc1c[nH]c2ccc(Cl)cc12)C(=O)O; Phe(4-CF3) = N[C@@H](Cc1ccc(C(F)(F)F)cc1)C(=O)O; Phe(3-OMe) = COc1cccc(C[C@H](N)C(=O)O)c1; Bta = N[C@@H](Cc1csc2ccccc12)C(=O)O; Hyp = O=C(O)[C@@H]1C[C@@H](O)CN1; NMeF = CN[C@@H](Cc1ccccc1)C(=O)O; NMeNle = CCCC[C@H](NC)C(=O)O; NMeA = CN[C@@H](C)C(=O)O; Orn = NCCC[C@H](N)C(=O)O; Dab = NCC[C@H](N)C(=O)O; Dap = NC[C@H](N)C(=O)O; Sar = CNCC(=O)O Some results are limits rather than exact numbers.

Usually IC50 stands for the concentration at which inhibition is half-maximal.

Assay [1] deals with T1, LK35.2-hPD-L1 cells / PE-labeled PD-1-Ig (Homo sapiens, UniProt Q9NZQ7).
T1 construct: expressed in transfected cells; host or cells: LK35.2 mouse B cell line
T1 sequence (Q9NZQ7 19-290): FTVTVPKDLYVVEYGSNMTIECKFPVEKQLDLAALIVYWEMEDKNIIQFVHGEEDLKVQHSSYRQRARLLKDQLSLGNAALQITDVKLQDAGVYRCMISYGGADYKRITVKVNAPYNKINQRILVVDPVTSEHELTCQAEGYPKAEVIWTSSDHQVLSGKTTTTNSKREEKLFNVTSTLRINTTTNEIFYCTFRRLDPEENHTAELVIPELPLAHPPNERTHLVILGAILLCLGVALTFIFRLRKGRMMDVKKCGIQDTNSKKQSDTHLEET
In words: LK35.2-hPD-L1 cell binding high-content screening assay. The class given is cell-based. The gist of the method:
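Compound effect on PD-1/PD-L1 binding is measured by imaging cell-associated phycoerythrin signal. Human PD-1-Ig (PE on Ig tag, 1 nM final) is applied with compound to a murine B cell line overexpressing human PD-L1 for 1 h at 37 °C in serum-containing RPMI.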

Another assay has as its target T2, Human PD-L1/PD-1 (Homo sapiens, UniProt Q9NZQ7).
T2 construct: made in house; host or cells: HEK293T
The experiment in a line: HTRF PD-1-Ig/PD-L1-His binding assay (human PD-L1). The gist of the method: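 Ig- and His-fused extracellular PD-1/PD-L1 binding in BSA/Tween-20 dPBS. HTRF with Eu anti-Ig (1 nM final) and APC anti-His (20 nM final).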

[2] abbreviates: cell binding assay, cell line not given, cluster symbol, read-out: CBA IC50 cluster.
Setting [3] is: cluster symbol, read-out: HTRF IC50 cluster.
Setting [4] is: cluster symbol, cell line of CBA not given (LK35.2-hPD-L1 or 293T-hPD-L1), read-out: CBA IC50 cluster.

T2 sequence (Q9NZQ7 with tags, fused parts or gaps): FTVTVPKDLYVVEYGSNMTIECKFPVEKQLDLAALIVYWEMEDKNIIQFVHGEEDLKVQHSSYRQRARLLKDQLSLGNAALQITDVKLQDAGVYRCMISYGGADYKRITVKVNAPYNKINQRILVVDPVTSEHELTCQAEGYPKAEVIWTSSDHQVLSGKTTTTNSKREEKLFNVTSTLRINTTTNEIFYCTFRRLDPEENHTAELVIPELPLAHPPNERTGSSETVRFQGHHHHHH

For the compound `CCCC[C@H]1C(=O)N(C)CC(=O)N[C@@H](CC(=O)O)C(=O)N[C@@H](C(C)C)C(=O)N[C@@H](Cc2ccc(O)cc2)C(=O)N[C@@H](Cc2ccc(O)cc2)C(=O)N(C)CC(=O)N[C@@H](Cc2c[nH]c3ccccc23)C(=O)N[C@@H](Cc2ccc(O)cc2)C(=O)N[C@@H](CC(C)C)C(=O)N[C@H](C(=O)NCC(N)=O)CSCC(=O)N[C@@H](Cc2ccccc2)C(=O)N(C)[C@@H](Cc2ccccc2)C(=O)N1C` [Example 3504] (HELM PEPTIDE1{[O=C(C[*:3])[*:2]].F.[meF].[CCCC[C@@H](C(=O)[*:2])N(C)[*:1]].[Sar].D.V.Y.Y.[Sar].W.Y.L.C.G.[am]}$PEPTIDE1,PEPTIDE1,1:R3-14:R3$$$V2.0), the IC50 is > 74.3 nM in assay [1] (setting [2]) and > 30.5 nM at Human PD-L1/PD-1 (setting [3]).

Regarding `C=CCCCC[C@H]1C(=O)N(C)[C@@H](CCCCC=C)C(=O)N[C@@H](CCCNC(=N)N)C(=O)N[C@H](C(=O)NCC(N)=O)CSCC(=O)N[C@@H](Cc2ccccc2)C(=O)N(C)[C@@H](C)C(=O)N[C@@H](CC(N)=O)C(=O)N2CCC[C@H]2C(=O)N[C@@H](Cc2cnc[nH]2)C(=O)N[C@@H](CC(C)C)C(=O)N(C)CC(=O)N[C@@H](Cc2c[nH]c3ccccc23)C(=O)N[C@@H](CO)C(=O)N[C@@H](Cc2c[nH]c3ccccc23)C(=O)N1C` [Example 1043], the results for the IC50 (in assay [1] (setting [4]); at Human PD-L1/PD-1 (setting [3])) were 4.78 to 72.9 nM and 6.76 to 30.3 nM, respectively.

On to `CCCC[C@H]1C(=O)N(C)[C@@H](CCCC)C(=O)N[C@@H](CCCN)C(=O)N[C@H](C(=O)NCC(N)=O)CSCC(=O)N[C@@H](Cc2ccc(O)cc2)C(=O)N2CCC[C@H]2C(=O)N[C@@H](CC(=O)O)C(=O)N2CCC[C@H]2C(=O)N[C@@H](CN)C(=O)N[C@@H](CCC(=O)O)C(=O)N2C[C@H](O)C[C@H]2C(=O)N[C@@H](Cc2c[nH]c3ccccc23)C(=O)N[C@@H](CCN)C(=O)N[C@@H](Cc2csc3ccccc23)C(=O)N1C` [Example 1193] ({CH2CO}-YPDP[Dap]E[Hyp]W[Dab][Bta][NMeNle][NMeNle][Orn]CG-NH2; thioether N-14), for which the IC50 was 0.158 to 4.71 nM in assay [1] (setting [4]) and 0.385 to 6.74 nM at Human PD-L1/PD-1 (setting [3]).

Consider `CCCC[C@H]1C(=O)N(C)[C@@H](CCCC)C(=O)N[C@@H](CC(C)C)C(=O)N[C@H](C(=O)NCC(N)=O)CSCC(=O)N[C@@H](Cc2ccc(O)cc2)C(=O)N(C)[C@@H](C)C(=O)N[C@@H](CC(N)=O)C(=O)N2CCC[C@H]2C(=O)N[C@@H](Cc2c[nH]cn2)C(=O)NCC(=O)N2C[C@H](O)C[C@H]2C(=O)N[C@@H](Cc2c[nH]c3ccccc23)C(=O)N[C@@H](CO)C(=O)N[C@@H](Cc2c[nH]c3ccccc23)C(=O)N1C` [Example 5122] ({CH2CO}-Y[NMeA]NPHG[Hyp]WSW[NMeNle][NMeNle]LCG-NH2; thioether N-14), for which the IC50 in assay [1] (cell binding assay, cell line not given, value given instead of cluster, read-out: CBA IC50 value) amounted to 134 nM; on Human PD-L1/PD-1 (value given instead of cluster, read-out: HTRF IC50 value) it was 34.8 nM.

Regarding `CCCC[C@H]1C(=O)N(C)CC(=O)N[C@@H](CC(=O)O)C(=O)N[C@@H](C(C)C)C(=O)N(C)[C@@H](Cc2ccccc2)C(=O)N[C@@H](Cc2ccc(O)cc2)C(=O)N(C)CC(=O)N[C@@H](Cc2c[nH]c3ccccc23)C(=O)N[C@@H](Cc2ccc(C(F)(F)F)cc2)C(=O)N[C@@H](CC(C)C)C(=O)N[C@H](C(=O)NCC(N)=O)CSCC(=O)N[C@@H](Cc2ccccc2)C(=O)N(C)[C@@H](Cc2ccccc2)C(=O)N1C` [Example 3138] ({CH2CO}-F[NMeF][NMeNle][Sar]DV[NMeF]Y[Sar]W[Phe(4-CF3)]LCG-NH2; thioether N-13), the values for the IC50 (in assay [1] (setting [4]); at Human PD-L1/PD-1 (setting [3])) were > 74.3 nM and > 30.5 nM, respectively.

As for `CCCC[C@H]1C(=O)N(C)[C@@H](CCCC)C(=O)N[C@@H](CCCNC(=N)N)C(=O)N[C@H](C(=O)NCC(N)=O)CSCC(=O)N[C@@H](Cc2ccccc2)C(=O)N(C)[C@@H](C)C(=O)N[C@@H](CC(N)=O)C(=O)N2CCC[C@H]2C(=O)N[C@@H](Cc2cnc[nH]2)C(=O)N[C@@H](CC(C)C)C(=O)N(C)CC(=O)N[C@@H](Cc2c[nH]c3ccc(Cl)cc23)C(=O)N[C@@H](CO)C(=O)N[C@@H](Cc2c[nH]c3ccc(Cl)cc23)C(=O)N1C` [Example 1024] ({CH2CO}-F[NMeA]NPHL[Sar][Trp(5-Cl)]S[Trp(5-Cl)][NMeNle][NMeNle]RCG-NH2; thioether N-14), the figures for the IC50 (in assay [1] (setting [4]); at Human PD-L1/PD-1 (setting [3])) were > 74.3 nM and > 30.5 nM, respectively.

Turning to `CCCC[C@H]1C(=O)N(C)[C@@H](CCCC)C(=O)N[C@@H](CCN)C(=O)N[C@H](C(=O)NCC(N)=O)CSCC(=O)N[C@@H](Cc2ccc(O)cc2)C(=O)N(C)[C@@H](C)C(=O)N[C@@H](CC(N)=O)C(=O)N2CCC[C@H]2C(=O)N[C@@H](Cc2cnc[nH]2)C(=O)N[C@@H](CCC(=O)O)C(=O)N2C[C@H](O)C[C@H]2C(=O)N[C@@H](Cc2c[nH]c3ccccc23)C(=O)N[C@@H](CO)C(=O)N[C@@H](Cc2c[nH]c3ccccc23)C(=O)N1C` [Example 5031] ({CH2CO}-Y[NMeA]NPHE[Hyp]WSW[NMeNle][NMeNle][Dab]CG-NH2; thioether N-14), the half-inhibitory concentration (IC50) in assay [1] (setting [2]) is 0.158 to 4.71 nM; on Human PD-L1/PD-1 (setting [3]) it was 0.385 to 6.74 nM.

Regarding `CCCC[C@H]1C(=O)N(C)CC(=O)N[C@@H](CC(=O)O)C(=O)N[C@@H](C(C)C)C(=O)N(C)[C@@H](Cc2ccccc2)C(=O)N[C@@H](Cc2ccc(O)cc2)C(=O)N(C)CC(=O)N[C@@H](Cc2c[nH]c3ccccc23)C(=O)N[C@@H](Cc2ccc(O)cc2)C(=O)N[C@@H](CC(C)C)C(=O)N[C@H](C(=O)NCC(N)=O)CSCC(=O)N[C@@H](Cc2cccc(OC)c2)C(=O)N(C)[C@@H](Cc2ccccc2)C(=O)N1C` [Example 3095] ({CH2CO}-[Phe(3-OMe)][NMeF][NMeNle][Sar]DV[NMeF]Y[Sar]WYLCG-NH2; thioether N-13), the half-inhibitory concentration (IC50) in assay [1] (setting [4]) is 4.78 to 72.9 nM; at Human PD-L1/PD-1 (setting [3]) it was 6.76 to 30.3 nM.

Turning to `CCCC[C@H]1C(=O)N(C)[C@@H](CCCC)C(=O)N[C@@H](CCCNC(=N)N)C(=O)N[C@H](C(=O)NCC(N)=O)CSCC(=O)N[C@@H](Cc2cccc3[nH]ccc23)C(=O)N(C)[C@@H](C)C(=O)N[C@@H](CC(N)=O)C(=O)N2CCC[C@H]2C(=O)N[C@@H](Cc2cnc[nH]2)C(=O)N[C@@H](CC(C)C)C(=O)N2CCC[C@H]2C(=O)N[C@@H](Cc2c[nH]c3ccccc23)C(=O)N[C@@H](CO)C(=O)N[C@@H](Cc2csc3ccccc23)C(=O)N1C` [Example 1120] ({CH2CO}-[Ala(indol-4-yl)][NMeA]NPHLPWS[Bta][NMeNle][NMeNle]RCG-NH2; thioether N-14), the IC50 is 0.158 to 4.71 nM in assay [1] (setting [4]) and 6.76 to 30.3 nM on Human PD-L1/PD-1 (setting [3]).

As for `CCCC[C@H]1C(=O)N(C)[C@@H](CCCC)C(=O)N[C@@H](C)C(=O)N[C@H](C(N)=O)CSCC(=O)N[C@@H](Cc2ccc(O)cc2)C(=O)N(C)[C@@H](C)C(=O)N[C@@H](CCC(=O)O)C(=O)N2CCC[C@H]2C(=O)N[C@@H](Cc2cnc[nH]2)C(=O)N[C@@H](CCN)C(=O)N2C[C@H](O)C[C@H]2C(=O)N[C@@H](Cc2c[nH]c3ccccc23)C(=O)N[C@@H](CO)C(=O)N[C@@H](Cc2c[nH]c3ccccc23)C(=O)N1C` [Example 1239] ({CH2CO}-Y[NMeA]EPH[Dab][Hyp]WSW[NMeNle][NMeNle]AC-NH2; thioether N-14), the IC50 in assay [1] (setting [4]) is 4.78 to 72.9 nM; at Human PD-L1/PD-1 (setting [3]), 6.76 to 30.3 nM.

Turning to `CCCC[C@H]1C(=O)N[C@@H](CN)C(=O)N[C@H](C(=O)NCC(N)=O)CSCC(=O)N[C@@H](Cc2ccc(O)cc2)C(=O)N(C)[C@@H](C)C(=O)N[C@@H](CC(N)=O)C(=O)N2CCC[C@H]2C(=O)N[C@@H](Cc2c[nH]cn2)C(=O)N[C@@H](CCC(=O)O)C(=O)N2C[C@H](O)C[C@H]2C(=O)N[C@@H](Cc2c[nH]c3ccccc23)C(=O)N[C@@H](CCN)C(=O)N[C@@H](Cc2c[nH]c3ccccc23)C(=O)N(C)[C@@H](Cc2ccccc2)C(=O)N1C` [Example 5144] ({CH2CO}-Y[NMeA]NPHE[Hyp]W[Dab]W[NMeF][NMeNle][Dap]CG-NH2; thioether N-14), the IC50 in assay [1] (setting [2]) lay within 0.158 to 4.71 nM; on Human PD-L1/PD-1 (setting [3]), 0.385 to 6.74 nM.
